The target in one assay is selected RNA motifs. Kind of assay: In solution fluorescence-based binding affinity measurement. Particulars: read-out: Average Kd of Selected RNA Binders. As to the method: Bound RNA motifs for each compound were harvested from the array surface, amplified, and identified by using high throughput sequencing (RNA-seq). Highly abundant RNAs in the sequencing data were then subjected to binding measurements. Typically, those RNAs that were highly enriched bound to the small molecules with affinities (Kds) that ranged from 1 to 10 μM (FIG. 2 and Table 1) while binding to the starting libraries was not saturable. These affinities are promising for binding RNA, as it has been difficult to acquire low micromolar affinity with compounds of this low molecular weight. In fact, RNAs that have undergone Darwinian evolution to bind small molecules, namely riboswitches, often bind their cognate ligand at […] concentrations;^30-33 bioactive compounds that mimic riboswitch ligands bind with similar affinities.^30,34
(§1) Binding Affinity Measurements: An in solution, fluorescence-based assay was used to determine binding affinities by monitoring the change in fluorescence intensity of 1-FL (or 2-FL/3-FL/4-FL) as a function of RNA concentration as described previously.^18 Briefly, the RNA of interest was folded in 1× Folding Buffer (8 mM Na2HPO4, pH 7.0, 185 mM NaCl and 1 mM EDTA) by heating at 60° C. for 5 min followed by slowly cooling to room temperature on the bench top. Then, the FL-conjugated compound was added into the RNA solution to a final concentration of 100 nM. Serial dilutions were then completed using 1× Folding Buffer supplemented with 100 nM FL-conjugated compound. The solutions were incubated at room temperature for 30 min and then transferred to a well of a black 384-well plate. Fluorescence intensity was measured using a Bio-Tek FL×800 plate reader with an excitation wavelength of 485/20 nm and an emission wavelength of 528/20 nm. The change in fluorescence intensity as a function of the concentration of RNA was fit to equation 3:^9 I=I0+0.5 Δε{([FL]0+[RNA]0 +Kd)−(([FL]0+[RNA]0+Kd)^2−4[FL]0[RNA]0)^1/2} (3) where I is the observed fluorescence intensity; I0 is the fluorescence intensity in the absence of RNA; Δε is the difference between the fluorescence intensity in the absence of RNA and in the presence of infinite RNA concentration; [FL]0 is the concentration of compound; [RNA]0 is the concentration of the selected RNA; and Kd is the dissociation constant.

For assay [1], the system named is motif in the Dicer site of miR-19b. Description: Fluorescence-based binding affinity measurement. As to conditions: miR-19b Dicer site motif. Also on record: species or system human. As to the method: (§2) Mutation of the U bulge to an AU pair (RNAC) eliminates binding (Kd>100 μM).
as §1

For assay [2], the system named is motif in the Dicer site of miR-19a. Description: Fluorescence-based binding affinity measurement. More on the design: species or system human. Particulars: miR-19a Dicer site motif. Here is the method:
as §2, §1

For assay [3], the system named is motif in the Dicer site of miR-92a. Description: Fluorescence-based binding affinity measurement. More on the design: species or system human. As to conditions: miR-92a Dicer site motif. Here is the method: as §2, §1
Assay [4] concerns the target RNA3 (G bulge of the miR-17 and miR-20a precursors). Kind of assay: Fluorescence-based binding affinity measurement. More on the design: species or system human. Here is the method: FIG. 7: Secondary structures of the nucleic acids to which the binding of small molecule 4 was assessed. […] RNA1 contains the U bulge present in the Dicer processing site common to miR-17, -18a and -20a. RNA2 contains the A bulge that is present in miR-18a. RNA3 contains the G bulge present in miR-17 and miR-20a. Binding affinities (Kd's) are indicated in parentheses and are reported in micromolar.
as §2, §1

For a further assay, the system named is STK4 protein. Kind of assay: Western blotting of STK4 in DU145 cells. As to conditions: 20 μM. It is filed as cell-based. Here is the method: A previous study has shown that miR-18a represses serine/threonine protein kinase 4 (STK4) protein, a tumor suppressor, in prostate cancer cells and promotes tumorigenesis.^45 Thus, we studied the ability of compound 4 to de-repress STK4 and trigger apoptosis. Treatment of DU145 cells with 20 μM of 4 increases levels of STK4 by 2.5-fold (FIG. 9A).
Western Blotting: Cells were grown in 6-well plates to ˜80% confluency in complete growth medium and then incubated with 10 or 20 μM of 4 for 48 h. Total protein was extracted using M-PER Mammalian Protein Extraction Reagent (Pierce Biotechnology) per the manufacturer's recommended protocol. Extracted total protein was quantified using a Micro BCA Protein Assay Kit (Pierce Biotechnology). […]
The membrane was briefly washed with 1× Tris-buffered saline (TBS; 50 mM Tris-CI, pH 7.5. 150 mM NaCl) and blocked with 5% milk in 1×TBST (1×TBS containing 0.05% Tween-20) for 1 h at room temperature. […] After washing with 1×TBST, protein expression was quantified using SuperSignal West Pico Chemiluminescent Substrate (Pierce Biotechnology) per the manufacturer's protocol.
The membrane was then stripped using 1× Stripping Buffer (200 mM glycine, 1% Tween-20 and 0.1% SDS, pH 2.2) followed by washing in 1×TBST. […] ImageJ software from the National Institutes of Health was used to quantify band intensities.
Background: In western blotting, separated proteins are transferred to a membrane and probed.

On to `CN1CCN(c2ccc(-c3ccc4nc(-c5cc(C(C)(C)C)c(OCCCC(=O)NCCCN=[N+]=[N-])c(C(C)(C)C)c5)[nH]c4c3)cc2)CC1` [Compound 4], for which the values for the Kd (at selected RNA motifs; in assay [4]) were 11 ± 2 µM and 40 ± 6 µM, respectively. For the same molecule, the Saturable binding result in assay [1], in assay [2] and in assay [3] was “No saturable binding” in each case. Further, the “Increase of STK4 levels” value in the assay on STK4 protein is given as 2.5 fold.

The Kd is the free concentration of one partner at which half of the binding sites on the other are occupied at equilibrium, for simple one-to-one binding.

Values taken from patent US12527788B2, “Defining RNA-small molecule affinity landscapes enables design of a small molecule inhibitor of an oncogenic non-coding RNA” (University of Florida Research Foundation, Incorporated, priority 2017, dated 2026).
